Measured values: patent US8741867B2, “Retinoid-liposomes for treating fibrosis” (Nitto Denko Corporation, priority 2011, dated 2014)
Where two headings read alike, the source gives them in different places. d = 2'-deoxy (DNA); r = 2'-OH (RNA)

Tests used:
293_HSP47-GFP cell line [1] = experiment: Cell viability of 293_HSP47-GFP cells treated with siNA (CellTiter-Glo); settings: normalized to scrambled siRNA
Experimental: (§2) Cells treated with or without siNA were measured for viability after 72 hours incubation using CellTiter-Glo Luminescent Cell Viability Assay Kit according to the manual (Promega). The readings were normalized to samples treated with scrambled siNA molecules.
(§3) The 293_HSP47-GFP and 293_GP46-GFP cell lines treated with siRNA against hsp47 and gp46 were evaluated for viability using the methods described in Example 2. The cell viability was normalized to cells treated with scrambled siRNA (Ambion).

rat gp46 [2] = experiment: Inhibition of gp46 expression by prepared siRNA in NRK cells (western blot); format: cell-based
Experimental: Normal rat kidney cells (NRK cells), which had rat gp46 and were fibroblasts producing collagen, were transfected with 0.1 nM to 50 nM siRNA and cultured for 12 to 48 hours (FIG. 1). The amount of expression of gp46 was checked by the western blot method (FIGS. 2 to 4, upper band corresponding to gp46, lower band corresponding to actin control). All of the siRNAs inhibited the expression of gp46 protein remarkably compared with a vehicle (FIG. 2).

[3] = test system: rat fibroblasts (NRK cells); experiment: Inhibition of collagen synthesis by siRNA (3H-proline, collagenase-sensitive fraction); format: cell-based; settings: siRNA 50 nM, 48 hours, compared with control group
Experimental: In order to examine the amount of collagen synthesized, ^3H-proline was added to the culture supernatant of rat fibroblasts (NRK cells) under the above-mentioned conditions (siRNA concentration 50 nM, time 48 hours), and after transfection the amount of ^3H in secreted protein was examined (FIG. 5). The amount of collagen synthesized was calculated from the ratio of protein secreted in the supernatant to protein degraded by collagenase when culturing gp46siRNA-transfected fibroblasts in the presence of ^3H-proline in accordance with Peterkofsky et al., 1971 Biochemistry 10:988-94. Collagen synthesis ratio=collagenase−sensitive fraction×100(5.4×collagenase−insensitive fraction+collagenase−sensitive fraction)
The collagen synthesis ratio in rat fibroblasts decreased by about 40% compared with a control group (FIG. 6).

human HSP47 = experiment: Inhibitory efficiency of siHsp47 in 293_HSP47-GFP reporter cell line (GFP fluorescence); format: cell-based; settings: 293_HSP47-GFP cell line, normalized to scrambled siRNA
From the text: (§1) The fluorescent signals were normalized to fluorescent signals from cells treated with scrambled siRNA (Ambion) which served as a control.

rat gp46 [4] = experiment: Inhibitory efficiency of siHsp47 in 293_GP46-GFP reporter cell line (GFP fluorescence); format: cell-based; settings: 293_GP46-GFP cell line, normalized to scrambled siRNA
From the text: as §1

293_GP46-GFP cell line = format: cell-based, human
Experimental: as §2, §3

hsp47 mRNA = experiment: siHsp47 inhibitory effect on hsp47 mRNA by TaqMan qPCR in hTERT cells; format: cell-based, human; settings: 72 hours after transfection, normalized to GAPDH
Experimental: In Example 14, the knock down efficiency of siHsp47s in reporter cell lines was evaluated by change in fluorescent signal. To validate the results at the mRNA level, siRNAs targeting endogenous hsp47 were transfected into cells of the human HSC cell line hTERT using Lipofectamine RNAiMAX (Invitrogen) in a reverse transfection manner as described in Example 13
The hsp47 mRNA level was evaluated for knock down efficiency of the various tested siHsp47 siNA molecules. Briefly, mRNA were isolated from hTERT cells after 72 hours after transfection using an RNeasy mini kit (Qiagen). The level of hsp47 mRNA was determined by reverse transcription coupled with quantitative PCR using TaqMan® probes. Briefly, cDNA synthesis was carried out using High-Capacity cDNA Reverse Transcription Kit (ABI) according to the manufacturer's instruction, and subjected to TaqMan Gene Expression Assay (ABI, hsp47). The level of hsp47 mRNA was normalized to the level of GAPDH mRNA according to the manufacturer's instruction (ABI).

HSP47 protein = experiment: siHsp47 knock down effect at the protein level in hTERT cells (western blot); format: cell-based, human; settings: hTERT cell lysate
Experimental: The inhibitory effect of different Hsp47 siNA molecules (siHsp47) on hsp47 mRNA expression were validated at the protein level by measuring the HSP47 in hTERT cells transfected with different siHsp47. Transfection of hTERT cells with different siHsp47 were performed as described in Example 13. Transfected hTERT cells were lysed and the cell lysate were clarified by centrifugation. Proteins in the clarified cell lysate were resolved by SDS polyacrylamide gel electrophoresis. The level of HSP47 protein in the cell lysate were determined using an anti-HSP47 antibody (Assay Designs) as the primary antibody, Goat anti-mouse IgG conjugated with HRP (Millipore) as the secondary antibody, and subsequently detected by Supersignal West Pico Chemiluminescence kit (Pierce). Anti-actin antibody (Abcam) was used as a protein loading control.

collagen I mRNA = experiment: Downregulation of collagen I expression by hsp47 siRNA in hTERT cells (TaqMan qPCR); format: cell-based, human; settings: 72 hours, normalized to GAPDH and scrambled siNA
Experimental: To determine the effect of siHsp47 on collagen I expression level, collagen I mRNA level in hTERT cells treated with different siRNA against hsp47 was measured. Briefly, hTERT cells were transfected with different siHsp47 as described in Example 13. The cells were lysed after 72 hours and mRNA were isolated using RNeasy mini kit according to the manual (Qiagen). The level of collagen 1 mRNA was determined by reverse transcription coupled with quantitative PCR using TaqMan® probes. Briefly, cDNA synthesis was carried out using High-Capacity cDNA Reverse Transcription Kit (ABI) according to the manual, and subjected to TaqMan Gene Expression Assay (ABI, COL 1A1 assay). The level of collagen I mRNA was normalized to the level of GAPDH mRNA according to the manufacturer's instruction (ABI). The signals were normalized to the signal obtained from cells transfected with scrambled siNA.

293_HSP47-GFP cell line [5] = test system: 293_HSP47-GFP cell line
Experimental: as §2, §3

Substance | cell viability / cytotoxicity (293_HSP47-GFP cell line [1]) | knockdown of human HSP47 (GFP fluorescent signal) (human HSP47) | knockdown of rat GP46 (GFP fluorescent signal) (rat gp46 [4]) | cell viability / cytotoxicity (293_GP46-GFP cell line) | knock down of hsp47 mRNA (remaining mRNA level) (hsp47 mRNA) | level of Hsp47 protein (HSP47 protein) | collagen I mRNA level (collagen I mRNA) | cell viability / cytotoxicity (293_HSP47-GFP cell line [5]) | other results
siHsp47-6: siRNA to human hsp47 cDNA 446-464, 19-mer duplex; SEQ ID NO 53/54 (chain 1 GCAGCAAGCAGCACUACAAUU; chain 2 UUGUAGUGCUGCUUGCUGCUU; chemistry not fully specified) | lower | – | – | – | – | – | – | – | –
Sequence A: siRNA for rat gp46, GUUCCACCAUAAGAUGGUAGACAAC (SEQ ID NO: 2728) (chemistry not given here) | – | – | – | – | – | – | – | – | inhibition of gp46 expression, dependence on concentration (rat gp46 [2]; 0.1 nM to 50 nM siRNA): concentration dependent; inhibition of gp46 protein expression (rat gp46 [2]; 50 nM siRNA, 48 hours): about 90%; expression of gp46 protein (western blot) (rat gp46 [2]; 24 hour culturing, examination of optimal sequence, compared with vehicle): strongest effect; decrease of collagen synthesis ratio [3]: about 40%
siHsp47-2d: siRNA to human hsp47 cDNA 469-493, 25-mer duplex; sense GAGCACUCCAAGAUCAACUUCCGdCdG (SEQ ID NO 25/26) (sense GAGCACUCCAAGAUCAACUUCCGCG; antisense GCGGAAGUUGAUCUUGGAGUGCUCUU; sense: sugars from the 5' end r23 d2, backbone not given here; antisense: chemistry not given here) | – | efficiently knockdown | efficiently knockdown | without substantial cytotoxicity | next most effective | significant decrease | significantly reduced | without substantial cytotoxicity | –
siHsp47-2: siRNA to human hsp47 cDNA 469-487, 19-mer duplex; sense GAGCACUCCAAGAUCAACUdTdT (SEQ ID NO 21/22) (sense GAGCACUCCAAGAUCAACUTT; antisense AGUUGAUCUUGGAGUGCUCTT; sugars from the 5' end r19 d2, backbone not given here) | – | efficiently knockdown | efficiently knockdown | without substantial cytotoxicity | next most effective | – | significantly reduced | without substantial cytotoxicity | –
Hsp47-7: siRNA to human hsp47 cDNA 692-710, 19-mer duplex; SEQ ID NO 57/58 (chain 1 CCGUGGGUGUCAUGAUGAUUU; chain 2 AUCAUCAUGACACCCACGGUU; chemistry not fully specified) | lower | – | – | – | – | – | – | – | –
siHsp47-C: siRNA to human and rat hsp47, 19mer duplex, dTdT overhangs; sense GGACAGGCCUCUACAACUAdTdT (SEQ ID NO 5/6) (sense GGACAGGCCUCUACAACUATT; antisense UAGUUGUAGAGGCCUGUCCTT; sugars from the 5' end r19 d2, backbone not given here) | – | efficiently knockdown | efficiently knockdown | without substantial cytotoxicity | most effective | significant decrease | – | without substantial cytotoxicity | –
